Assay: excess molar enthalpy (molar enthalpy of mixing); xn = mol fraction of the nth substance listed
Settings: Liquid, Flow calorimetry

COC(=O)OC [dimethyl carbonate] + CCO
Settings	excess molar enthalpy [kcal/mol]
298.15 K, 1000 kPa, x1 = 0.05	0.1012
298.15 K, 1000 kPa, x1 = 0.1	0.1881
298.15 K, 1000 kPa, x1 = 0.15	0.2526
298.15 K, 1000 kPa, x1 = 0.2	0.3048
298.15 K, 1000 kPa, x1 = 0.25	0.3456
298.15 K, 1000 kPa, x1 = 0.3	0.3728
298.15 K, 1000 kPa, x1 = 0.35	0.3921
298.15 K, 1000 kPa, x1 = 0.4	0.4023
298.15 K, 1000 kPa, x1 = 0.45	0.4067
298.15 K, 1000 kPa, x1 = 0.5	0.4047
298.15 K, 1000 kPa, x1 = 0.55	0.3955
298.15 K, 1000 kPa, x1 = 0.6	0.3776
298.15 K, 1000 kPa, x1 = 0.65	0.3579
298.15 K, 1000 kPa, x1 = 0.7	0.3311
298.15 K, 1000 kPa, x1 = 0.75	0.2963
298.15 K, 1000 kPa, x1 = 0.8	0.2542
298.15 K, 1000 kPa, x1 = 0.85	0.2024
313.15 K, 100 kPa, x1 = 0.0521	0.0984
313.15 K, 100 kPa, x1 = 0.098	0.1854
313.15 K, 100 kPa, x1 = 0.1514	0.2672
313.15 K, 100 kPa, x1 = 0.1988	0.3216
313.15 K, 100 kPa, x1 = 0.2488	0.3685
313.15 K, 100 kPa, x1 = 0.3012	0.4033
313.15 K, 100 kPa, x1 = 0.3519	0.4273
313.15 K, 100 kPa, x1 = 0.4008	0.4431
313.15 K, 100 kPa, x1 = 0.4516	0.447
313.15 K, 100 kPa, x1 = 0.5007	0.4465
313.15 K, 100 kPa, x1 = 0.5515	0.4379
313.15 K, 100 kPa, x1 = 0.6003	0.4197
313.15 K, 100 kPa, x1 = 0.6506	0.3969
313.15 K, 100 kPa, x1 = 0.699	0.3683
313.15 K, 100 kPa, x1 = 0.7513	0.3253
313.15 K, 100 kPa, x1 = 0.7987	0.2835
313.15 K, 100 kPa, x1 = 0.8497	0.2287
313.15 K, 100 kPa, x1 = 0.9012	0.1572
313.15 K, 100 kPa, x1 = 0.9504	0.0808
313.15 K, 1000 kPa, x1 = 0.052	0.1039
313.15 K, 1000 kPa, x1 = 0.0979	0.1898
313.15 K, 1000 kPa, x1 = 0.1513	0.2697
313.15 K, 1000 kPa, x1 = 0.1986	0.3254
313.15 K, 1000 kPa, x1 = 0.2487	0.3721
313.15 K, 1000 kPa, x1 = 0.3011	0.4066
313.15 K, 1000 kPa, x1 = 0.3517	0.4296
313.15 K, 1000 kPa, x1 = 0.4006	0.4435
313.15 K, 1000 kPa, x1 = 0.4515	0.4496
313.15 K, 1000 kPa, x1 = 0.5006	0.4474
313.15 K, 1000 kPa, x1 = 0.5513	0.4373
313.15 K, 1000 kPa, x1 = 0.6002	0.4211
313.15 K, 1000 kPa, x1 = 0.6504	0.3971
313.15 K, 1000 kPa, x1 = 0.6988	0.3677
313.15 K, 1000 kPa, x1 = 0.7511	0.3259
313.15 K, 1000 kPa, x1 = 0.7986	0.2824
313.15 K, 1000 kPa, x1 = 0.8496	0.2284
313.15 K, 1000 kPa, x1 = 0.9011	0.1552
313.15 K, 1000 kPa, x1 = 0.9504	0.0781
313.15 K, 10000 kPa, x1 = 0.0517	0.09719
313.15 K, 10000 kPa, x1 = 0.1019	0.1904
313.15 K, 10000 kPa, x1 = 0.1505	0.2626
313.15 K, 10000 kPa, x1 = 0.2019	0.3232
313.15 K, 10000 kPa, x1 = 0.2517	0.3678
313.15 K, 10000 kPa, x1 = 0.2998	0.4004
313.15 K, 10000 kPa, x1 = 0.3503	0.4236
313.15 K, 10000 kPa, x1 = 0.3992	0.4379
313.15 K, 10000 kPa, x1 = 0.45	0.4441
313.15 K, 10000 kPa, x1 = 0.4991	0.4423
313.15 K, 10000 kPa, x1 = 0.5498	0.4331
313.15 K, 10000 kPa, x1 = 0.5987	0.4174
313.15 K, 10000 kPa, x1 = 0.6491	0.394
313.15 K, 10000 kPa, x1 = 0.7005	0.3625
313.15 K, 10000 kPa, x1 = 0.75	0.3257
313.15 K, 10000 kPa, x1 = 0.8004	0.279
313.15 K, 10000 kPa, x1 = 0.8489	0.2261
313.15 K, 10000 kPa, x1 = 0.9006	0.1567
313.15 K, 10000 kPa, x1 = 0.9501	0.0768
328.15 K, 1000 kPa, x1 = 0.05	0.1153
328.15 K, 1000 kPa, x1 = 0.1	0.2147
328.15 K, 1000 kPa, x1 = 0.15	0.2918
328.15 K, 1000 kPa, x1 = 0.2	0.3565
328.15 K, 1000 kPa, x1 = 0.25	0.4091
328.15 K, 1000 kPa, x1 = 0.3	0.4447
328.15 K, 1000 kPa, x1 = 0.35	0.4711
328.15 K, 1000 kPa, x1 = 0.4	0.4883
328.15 K, 1000 kPa, x1 = 0.45	0.4949
328.15 K, 1000 kPa, x1 = 0.5	0.4942
328.15 K, 1000 kPa, x1 = 0.55	0.4854
328.15 K, 1000 kPa, x1 = 0.6	0.47
328.15 K, 1000 kPa, x1 = 0.65	0.4467
328.15 K, 1000 kPa, x1 = 0.7	0.4113
328.15 K, 1000 kPa, x1 = 0.75	0.3653
328.15 K, 1000 kPa, x1 = 0.8	0.3136
328.15 K, 1000 kPa, x1 = 0.85	0.2508
328.15 K, 1000 kPa, x1 = 0.9	0.1742
328.15 K, 1000 kPa, x1 = 0.95	0.08759

COC(=O)OC [dimethyl carbonate] + CCCO
Settings	excess molar enthalpy [kcal/mol]
298.15 K, 1000 kPa, x1 = 0.05	0.108
298.15 K, 1000 kPa, x1 = 0.1	0.2025
298.15 K, 1000 kPa, x1 = 0.15	0.2782
298.15 K, 1000 kPa, x1 = 0.2	0.3401
298.15 K, 1000 kPa, x1 = 0.25	0.3833
298.15 K, 1000 kPa, x1 = 0.3	0.4194
298.15 K, 1000 kPa, x1 = 0.35	0.447
298.15 K, 1000 kPa, x1 = 0.4	0.4608
298.15 K, 1000 kPa, x1 = 0.45	0.4692
298.15 K, 1000 kPa, x1 = 0.5	0.4679
298.15 K, 1000 kPa, x1 = 0.55	0.4588
298.15 K, 1000 kPa, x1 = 0.6	0.4437
298.15 K, 1000 kPa, x1 = 0.65	0.4199
298.15 K, 1000 kPa, x1 = 0.7	0.3883
298.15 K, 1000 kPa, x1 = 0.75	0.3492
298.15 K, 1000 kPa, x1 = 0.8	0.2996
298.15 K, 1000 kPa, x1 = 0.85	0.2396
298.15 K, 1000 kPa, x1 = 0.9515	0.0831
313.15 K, 1000 kPa, x1 = 0.0485	0.1015
313.15 K, 1000 kPa, x1 = 0.1002	0.2101
313.15 K, 1000 kPa, x1 = 0.1512	0.2976
313.15 K, 1000 kPa, x1 = 0.2017	0.3682
313.15 K, 1000 kPa, x1 = 0.2516	0.4232
313.15 K, 1000 kPa, x1 = 0.3009	0.4634
313.15 K, 1000 kPa, x1 = 0.3497	0.4921
313.15 K, 1000 kPa, x1 = 0.4014	0.5134
313.15 K, 1000 kPa, x1 = 0.449	0.5231
313.15 K, 1000 kPa, x1 = 0.4995	0.5234
313.15 K, 1000 kPa, x1 = 0.5494	0.5136
313.15 K, 1000 kPa, x1 = 0.5987	0.4971
313.15 K, 1000 kPa, x1 = 0.6506	0.4702
313.15 K, 1000 kPa, x1 = 0.6988	0.4383
313.15 K, 1000 kPa, x1 = 0.7495	0.3945
313.15 K, 1000 kPa, x1 = 0.8491	0.2714
313.15 K, 1000 kPa, x1 = 0.901	0.1899
313.15 K, 1000 kPa, x1 = 0.9493	0.0957
313.15 K, 10000 kPa, x1 = 0.0482	0.1172
313.15 K, 10000 kPa, x1 = 0.0996	0.2233
313.15 K, 10000 kPa, x1 = 0.1504	0.3101
313.15 K, 10000 kPa, x1 = 0.2007	0.3795
313.15 K, 10000 kPa, x1 = 0.2505	0.4328
313.15 K, 10000 kPa, x1 = 0.2997	0.4731
313.15 K, 10000 kPa, x1 = 0.3483	0.502
313.15 K, 10000 kPa, x1 = 0.3999	0.5218
313.15 K, 10000 kPa, x1 = 0.4509	0.5315
313.15 K, 10000 kPa, x1 = 0.5013	0.5316
313.15 K, 10000 kPa, x1 = 0.5512	0.5228
313.15 K, 10000 kPa, x1 = 0.6005	0.5047
313.15 K, 10000 kPa, x1 = 0.6493	0.4798
313.15 K, 10000 kPa, x1 = 0.7007	0.4413
313.15 K, 10000 kPa, x1 = 0.7515	0.3942
313.15 K, 10000 kPa, x1 = 0.8514	0.2719
313.15 K, 10000 kPa, x1 = 0.9005	0.1934
313.15 K, 10000 kPa, x1 = 0.949	0.09892
328.15 K, 1000 kPa, x1 = 0.05	0.1178
328.15 K, 1000 kPa, x1 = 0.1	0.2285
328.15 K, 1000 kPa, x1 = 0.15	0.3207
328.15 K, 1000 kPa, x1 = 0.2	0.3941
328.15 K, 1000 kPa, x1 = 0.25	0.4542
328.15 K, 1000 kPa, x1 = 0.3	0.4986
328.15 K, 1000 kPa, x1 = 0.35	0.5304
328.15 K, 1000 kPa, x1 = 0.4	0.553
328.15 K, 1000 kPa, x1 = 0.45	0.5666
328.15 K, 1000 kPa, x1 = 0.5	0.5671
328.15 K, 1000 kPa, x1 = 0.55	0.5597
328.15 K, 1000 kPa, x1 = 0.6	0.5432
328.15 K, 1000 kPa, x1 = 0.65	0.5174
328.15 K, 1000 kPa, x1 = 0.7	0.4791
328.15 K, 1000 kPa, x1 = 0.75	0.4296
328.15 K, 1000 kPa, x1 = 0.85	0.2956
328.15 K, 1000 kPa, x1 = 0.9	0.2109
328.15 K, 1000 kPa, x1 = 0.95	0.1065
